According to US20220380331A1, “TREATMENT OF CONDITIONS OF THE NERVOUS SYSTEM” (priority 2019, published 2022):

System: PNNs in the spinal cord
Experiment: Short-term (10 days) PNNi administration, histology of PNN/ECM components in the CNS
Format: in vivo, rat
Method: Animals were given an overdose of sodium pentobarbital (Pentoject; Henry Schein; 200 mg/kg; intraperitoneal injection) to deeply […] without halting cardiac function. A transcardial perfusion (Gage et al., 2012) was then performed using sodium phosphate buffer (PB; 0.12 M sodium phosphate monobasic; 0.1 M NaOH; pH 7.4) followed by 4% paraformaldehyde (PFA; in PB; pH 7.4) for tissue fixation. The brain and spinal cord were dissected out, post-fixed in PFA (4%; 4° C.) overnight and cryoprotected in 30% sucrose solution (30% v/w sucrose in PB; 4° C.) until tissue saturation. The left brain hemisphere and appropriate spinal cord segments were excised and frozen in optimum temperature medium (OCT; Leica FSC 22 Frozen Section Media; Leica Biosystems) before storage at -80° C. until sectioning. Sectioning of tissue was performed using a cryostat (Leica CM1850; Leica Biosystems) into 40 μm transverse sections for free-floating sections and collected into 48-well plates containing physiological buffer solution (PBS; 0.13 M sodium chloride, […], 0.003 M sodium phosphate monobasic; pH 7.4) to remove the OCT before being transferred to 30% sucrose solution for storage at 4° C. At room temperature (RT), sections were washed three times for 5 min each in Tris-buffered saline (TBS; 0.1 M tris base, 0.15 M NaCl; pH 7.4) to remove sucrose residue. Tissue was then blocked in 0.3% TBST (1×TBS solution and 0.3% v/v Triton X-100) and 3% normal donkey serum (NDS; v/v) for two hours. The sections were then transferred to co-incubate at 4° C. in blocking buffer (3% NDS in 0.3% TBST; pH 7.4) containing primary antibodies. Following primary antibody or lectin incubation, sections were then washed thrice using TBS (10 mins; RT). To visualise each primary antibody staining, the tissue was then co-incubated in darkness with the fluorescent-conjugated secondary antibodies (1:500; 2 hrs; RT) against the species of the primary antibodies. Tissues were then washed three times in TBS (10 mins; RT) whilst protected from light. A final wash in Tris non-saline (TNS; 0.5 M Tris, pH 7.6) was given to reduce precipitation before air-drying. Tissues were mounted on Superfrost Plus slides, air-dried and coverslipped with the mounting medium FluorSaveTM Reagent (EMD Millipore). Lectins: biotinylated Wisteria floribunda agglutinin (bio-WFA), biotinylated hyaluronan binding protein (bHABP). […] PNNi treatment was consequently investigated in vivo, with short-term administration (10 days) via either oral feeding or intraperitoneal (i.p.) injection twice daily. […] Quantification in the dorsal horn of the spinal cord illustrated that ten days of oral PNNi administration induced a partial removal of WFA-positive moieties to 71.0±7.20% of baseline ECM levels (t(3)=5.15, p=0.0142; FIG. 9P). […] As oral PNNi treatment is both non-invasive and generated sufficient effects on the neural ECM in vivo, the following PNNi dosing experiments with Lister Hooded rats used this method of administration.

Which “WFA-positive moieties, of baseline ECM levels” value (dorsal horn of the spinal cord, ten days oral) does the source give for `Cc1cc(=O)oc2cc(O)ccc12` [PNNi, 4-methylumbelliferone] here?
Its value is 71.0±7.20%.

And the “HAPLN-1 staining, of baseline levels” value (dorsal horn, short-term oral)?
Its value is 68.3±8.09%.

And the “staining with HA binding protein (HABP), of baseline levels” value (dorsal horn, short-term oral)?
The value was 64.0±5.84%.

What about the “PNNs (ACAN staining, HABP) after 10 days oral administration in intact rats” value (intact rats, 10 days oral) of the same molecule?
Its value is “PNNs are reduced”.

And the “WFA-positive binding throughout the CNS compared to non-treated animals” value (ten days dosing, oral feeding or i.p. injection twice daily)?
The value was “sufficient in decreasing WFA-positive binding”.

And the “chondroitin sulphate and hyaluronan in the spinal cord” value (ten-day non-invasive oral administration)?
The value was “down-regulates both chondroitin sulphate and hyaluronan”.
